Results reported in patent US20140057915A1, “KINASE INHIBITORS” (TOPIVERT PHARMA LIMITED, priority 2012, published 2014).

Tested on: SCID mice
Assay: Adoptive transfer in mice
Conditions: mouse
Procedure: (D) Adoptive Transfer in Mice
On Study day 0, female Balb/C mice are terminated and spleens obtained for CD45RB^high cell isolation (Using SCID IBD cell Separation protocol). Approximately 4×10^5 cells/mL CD45RB^high cells are then injected IP (100 μL/mouse) into female SCID animals. On study day 14, mice are weighed and randomized into treatment groups based on body weight. On Day 21, compounds are administered BID, via oral gavage, in a peanut oil vehicle at the dose levels outlined below and a dose volume of 5 mL/kg. Treatment continues until study day 42, at which point the animals are necropsied 4 hours after am administration. The colon length and weight is recorded and used as a secondary endpoint in the study as a measurement of colon oedema. The colon is then divided into six cross-sections, four of which are used for histopathology scoring (primary endpoint) and two are homogenised for cytokine analysis. Data shown is the % inhibition of the induction window between naïve animals and vehicle animals, where higher inhibition implies closer to the non-diseased, naïve, phenotype.

Structure (SMILES): C#Cc1cc(Nc2nccc(Oc3ccc(NC(=O)Nc4cc(C(C)(C)C)nn4-c4ccc(OC)cc4)c4ccccc34)n2)cc(C(=O)NCCN2CCOCC2)c1 [Example 77, 3-((4-((4-(3-(3-(tert-Butyl)-1-(4-methoxyphenyl)-1H-pyrazol-5-yl)ureido)-naphthalen-1-yl)oxy)pyrimidin-2-yl)amino)-5-ethynyl-N-(2-morpholinoethyl)benzamide]
- activity in adoptive transfer in vivo model of colonic inflammation: significant activity
